According to patent publication US20240150841A1, “TAP63 REGULATED ONCOGENIC LONG NON-CODING RNAS” (H. LEE MOFFITT CANCER CENTER AND RESEARCH INSTITUTE, INC., priority 2021, published 2024):
Structures can show the parent of a compound that is named as a salt.

How the values were obtained:
TROLL-3 = test: qRT-PCR for TROLL-3 in triple negative breast cancer cells treated with drugs; format: cell-based, human; conditions: for expression of TROLL-3 following treatment: CA1D, BT-20, BT-549, MDA-MB-231, for at least 48 hours following treatment; for expression of TROLL-3 by the end of the 72 hour course: TNBC cell lines
Experimental: (§1) Total RNA was prepared using TRIzol reagent (Invitrogen)5. For gene expression analysis, complementary DNA was synthesized from 5 μg of total RNA using the SuperScript II First-Strand Synthesis Kit (Invitrogen) according to the manufacturer's protocol followed by qRT-PCR using the TaqMan® Universal PCR Master Mix (Applied Biosystems). qRT-PCR was performed using a QuantStudio 6 flex PCR machine (Applied Biosystems) and each qRT-PCR was performed in triplicate.
(§2) We wanted to examiner the effects anti-cancer treatments on the level of TROLLs overtime.

CA1D cells = test: Annexin V assay (apoptosis / cell death) time course in CA1D cells; format: cell-based, human
Experimental: Cells were plated at a density of 1×10^4 cells in 6 replicates in a 96-well plate. Three biological replicates were performed per each assay. To evaluate cell proliferation, the cells were labelled for 3 h with […] EdU (5′-ethynyl-2′-deoxyuridine) and stained using the Click-iT EdU microplate assay (Invitrogen). Apoptosis was monitored by incubating the cells with Annexin V-Alexa Fluor 488 (Essen BioScience) according to the manufacturer's instructions Images were captured and percent of either cell proliferation or apoptosis was quantified using a high-throughput immunofluorescence plate reader and accompanying software (IncuCyte, Essen Bioscience).
To see how effective the administration of an anti-cancer treatment alone or in combination with siRNA targeting TROLL2 and/or TROLL-3 was, CA1D cells were administered treatment and […] of the cells was measured by Annexin V staining. As shown in FIGS. 14A-14F cells with high levels of TROLLs were either limited in response to treatment or resistant.

TROLL-2 = test: qRT-PCR for TROLL-2 in triple negative breast cancer cells treated with drugs; format: cell-based, human; conditions: for expression of TROLL-2 following treatment: CA1D, BT-20, BT-549, MDA-MB-231, for at least 48 hours following treatment; for expression of TROLL-2 by the end of the 72 hour course: TNBC cell lines
Experimental: as §1, §2

WDR26 (endogenous) = WDR26 (endogenous) (UniProt Q9H7D7)
Chain of UniProt Q9H7D7 (Q9H7D7 whole entry): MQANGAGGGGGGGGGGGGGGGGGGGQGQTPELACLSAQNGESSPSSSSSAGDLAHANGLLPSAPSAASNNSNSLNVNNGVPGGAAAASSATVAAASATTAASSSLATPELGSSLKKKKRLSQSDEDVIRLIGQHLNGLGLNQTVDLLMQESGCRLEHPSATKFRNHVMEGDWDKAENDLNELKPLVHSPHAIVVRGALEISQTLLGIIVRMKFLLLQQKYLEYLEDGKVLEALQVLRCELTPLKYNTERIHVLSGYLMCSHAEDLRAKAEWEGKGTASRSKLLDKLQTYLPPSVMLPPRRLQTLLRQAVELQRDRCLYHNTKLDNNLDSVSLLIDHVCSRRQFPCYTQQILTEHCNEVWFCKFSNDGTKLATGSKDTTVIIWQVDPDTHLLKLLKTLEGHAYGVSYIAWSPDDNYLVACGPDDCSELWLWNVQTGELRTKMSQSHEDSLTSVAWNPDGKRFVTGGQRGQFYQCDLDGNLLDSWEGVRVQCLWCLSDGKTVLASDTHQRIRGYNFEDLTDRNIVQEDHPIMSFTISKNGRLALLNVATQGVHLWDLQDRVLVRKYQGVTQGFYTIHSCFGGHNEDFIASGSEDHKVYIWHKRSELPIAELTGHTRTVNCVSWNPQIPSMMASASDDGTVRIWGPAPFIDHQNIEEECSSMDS

Compound | expression of TROLL-3 following treatment (TROLL-3) | expression of TROLL-3 by the end of the 72 hour course (TROLL-3) | response to drug in TNBC with high levels of TROLLs (in particular TROLL-2 and TROLL-3) (CA1D cells) | response to drug in TNBC with low levels of TROLLs (in particular TROLL-2 and TROLL-3) (CA1D cells) | expression of TROLL-2 following treatment (TROLL-2) | expression of TROLL-2 by the end of the 72 hour course (TROLL-2) | AKT phosphorylation levels (pAKT S473, western blot) (WDR26 (endogenous))
COc1cccc2c1C(=O)c1c(O)c3c(c(O)c1C2=O)C[C@@](O)(C(=O)CO)C[C@@H]3O[C@H]1C[C@H](N)[C@H](O)[C@H](C)O1 [Adriamycin, Doxorubicin Hydrochloride] | reduced expression | increased expression | limited response | sensitivity | reduced expression | increased expression | –
CCCCCOC(=O)Nc1nc(=O)n([C@@H]2O[C@H](C)[C@@H](O)[C@H]2O)cc1F [capecitabine] | reduced expression | increased expression | resistance | partial response | reduced expression | increased expression | –
N.N.O=C([O-])C1(C(=O)[O-])CCC1.[Pt+2] [carboplatin] | reduced expression | increased expression | resistance | partial response | reduced expression | increased expression | –
O=P1(N(CCCl)CCCl)NCCCO1 (stereo not shown) [cyclophosphamide] | reduced expression | – | resistance | partial response | reduced expression | – | –
CC(=O)O[C@@]12CO[C@@H]1C[C@H](O)[C@@]1(C)C(=O)[C@H](O)C3=C(C)[C@@H](OC(=O)[C@H](O)[C@@H](NC(=O)OC(C)(C)C)c4ccccc4)C[C@@](O)([C@@H](OC(=O)c4ccccc4)[C@H]21)C3(C)C [docetaxel] | reduced expression | – | limited response | sensitivity | reduced expression | – | –
CC(=O)O[C@H]1C(=O)[C@@]2(C)[C@H]([C@H](OC(=O)c3ccccc3)[C@]3(O)C[C@H](OC(=O)[C@H](O)[C@@H](NC(=O)c4ccccc4)c4ccccc4)C(C)=C1C3(C)C)[C@]1(OC(C)=O)CO[C@@H]1C[C@@H]2O [paclitaxel] | reduced expression | – | limited response | sensitivity | reduced expression | – | –
AKT (endogenous) | – | – | – | – | – | – | a decrease in AKT phosphorylation levels
